One series has as its system skin. Put plainly: Irritating skin reactions in volunteers of the in vivo studies. Details: species or system human. As to conditions: topical emulsion (active principle 4%, retinol 0.15%), bi-daily for 28 days. The procedure: The active principle is formulated at 4% in an emulsion. Retinol is formulated at 0.15% in an emulsion.
The 2 formulae are tests and 2 groups of volunteers, against a placebo.
The tests have shown the influence of the active principle or of retinol on the appearance of crows-feet wrinkles, after bi-daily application for 28 days.
The active principle is formulated at 4% in emulsion, and retinol is formulated at 0.15% in an emulsion.
The 2 formulations are tested on 2 groups of volunteers, against a placebo.
The tests are carried out and the influence of the active principle or of retinol on the appearance of cutaneous micro-relief, after bi-daily application for 28 days.

For a further series, the system named is collagen I. Put plainly: Synthesis of collagen I in human fibroblasts by ELISA dosage. As to conditions: normal human fibroblasts; retinol at 10^-5 M. In kind it is cell-based. Here is the method: The study is conducted on human fibroblasts by ELISA dosage. The fibroblasts are incubated in the presence or not of the active principle, of the fractions or of retinol at 10^−5 M. The results are shown in FIG. 2. Tests have been carried out on normal human fibroblasts by ELISA dosage. The fibroblasts were treated with retinol at 10^−5 M or with the active principle at 0.1%, 0.25% and 0.5%.

Another series has as its system cutaneous micro-relief. Put plainly: Smoothing effect on cutaneous micro-relief of forearms in volunteers (profilometer). In kind it is in vivo, human. To be noted: active principle 4% or retinol 0.15% in emulsion, bi-daily for 28 days, against placebo. Here is the method: The active principle is formulated at 4% in emulsion, and retinol is formulated at 0.15% in an emulsion. The 2 formulations are tested on 2 groups of volunteers, against a placebo. The tests are carried out and the influence of the active principle or of retinol on the appearance of cutaneous micro-relief, after bi-daily application for 28 days. The analyses are carried out by observation of prints of the cutaneous micro-relief with the help of a profilometer associated with an image analyzer. The zones in question in this study are cutaneous zones of the forearms. The observed parameter is the mean rugosity of the micro-contour.

Consider `CC1=C(/C=C/C(C)=C/C=C/C(C)=C/CO)C(C)(C)CCC1` [retinol], for which the irritating skin reactions entry with skin is “reactions of the irritating skin type”. Also, in the series on collagen I, the “increase of the synthesis of collagen I” value was 171%. Further, the “smoothing effect on the micro-contour (mean rugosity) relative to the comparison” value in the series with cutaneous micro-relief is given as 8%.

(Values after patent publication US20080249064A1, “Activities of an active principle obtained from powdered alfalfa seeds (Medicago sativa), active principle used and process of obtaining the same” (SOCIETE INDUSTRIELLE LIMOUSINE D'APPLICATION BIOLOGIQUE …, priority 2004, published 2008).)
